The subject of this assay is P. aeruginosa PAK strain. It is filed as cell-based.

Regarding “acetyl-QIDPEFK-NH2 (Ac-QIDPEFK-NH2) [scrambled peptide]”, the “reduction of adherence to A549 cells” value was “did not interfere with adherence”.

As to “acetyl-KCTSDQDEQFLPKGCSK-NH2 (Ac-KCTSDQDEQFLPKGCSK-NH2; cysteine pairing not given here) [long pilin peptide]”, the “reduction of adherence to A549 cells” value is listed as “approximately 50%”.

Turning to “acetyl-DEQFIPK-NH2 (Ac-DEQFIPK-NH2) [core pilin peptide]”, the “reduction of adherence to A549 cells” value was “approximately 50%”.

The values are drawn from patent publication US7314625B2 (priority 2000, dated 2008).
